Experimental data from patent publication US20210023223A1, “HYDROCARBON / LIPID - CAROTENOID COMPLEXES” (IP SCIENCE LIMITED, priority 2018, published 2021).

Assays:
[1] = Acid induced degradation at pH 2.5, gas chromatography; type: physicochemical
Protocol: Briefly, 100 μl of serum and 2 ml of the stock solution were combined in screw-capped glass tubes. The tubes were capped and heated at 100 C for 60 min. The tubes were allowed to cool down to the room temperature and were extracted twice with 1 ml hexane. The combined hexane solution was evaporated under vacuum (Scan Speed 32 centrifuge) and the residue reconstituted to the volume of 50 μl with of hexane, transferred to GC vials, and capped under nitrogen.
Temperature program, initial: 130 C with a 4 min hold; ramp: 4 C/min to 280 C with a 2 min hold. Carrier gas was He, with a linear velocity of 30 cm/s. Fatty acid analysis was performed by injection of 1 μl of each sample at a split ratio of 50:1. The FID and the Injection port temperature was 300 C. The sampling frequency was 40 Hz. Fatty acids identification was performed with SUPELCO 37 COMPONENT FAME MIX (Supelco, USA). DHA concentrations were calculated on the basis of the standard concentrations. Analytical standard of DHA and PTC (Sigma, USA) were used in the assay.

[2] = test system: individuals with a moderate hyperlipidemia; test: Clinical Trial DHA-Lycopene, 4 weeks; type: in vivo, human; conditions: for LDL / Triglycerides: medians, DHA 250 mg and/or lycopene 7 mg once a day
Protocol: To validate this, a clinical trial was undertaken. 32 individuals aged 40-65 years old with a moderate hyperlipidemia (serum triglycerides, TG, >150 mg/dl and LDL from 130 to 160 mg/dl). They were randomised and split in four groups of 8: • The first was supplemented with a 250 mg of conventional formulation of DHA without lycopene (CF-DHA), • the second with 7 mg of lycopene, • the third with 250 mg of DHA and 7 mg of lycopene co-ingested at the same time but as two separate products, and • the fourth group received 7 mg lycopene formulated with 250 mg of DHA (LF-DHA). All products were taken once a day with the main meal. The duration of the trial was for 4 weeks.

[3] = DHA preparation with lycopene 1 mg per 1 g of DHA
[4] = DHA preparation without lycopene

GC peak Area, %, After 2 hours at pH 2.5 [1, 3] | GC peak Area, %, Baseline [1, 3] | GC peak Area, After 2 hours at pH 2.5 [1, 3] | GC peak Area, Baseline [1, 3] | GC peak Area, %, After 2 hours at pH 2.5 [1, 4] | GC peak Area, %, Baseline [1, 4] | GC peak Area, After 2 hours at pH 2.5 [1, 4] | GC peak Area, Baseline [1, 4] | Compound | LDL ([2]; 0 w) | Triglycerides ([2]; 0 w) | LDL ([2]; 4 w) | Triglycerides ([2]; 4 w) | Reduction of medians of serum TG concentration ([2]; 4 weeks) | Reduction in LDL ([2]; 4 weeks, p<0.05)
1.01% | 1.03% | 10,759 | 9,937 | 0.99% | 1.07% | 6679 | 11,447 | CCC=CCC=CCC=CCC=CC/C=C\CCCC(=O)O [cis-5,8,11,14,17-eicosapentaenoic] | – | – | – | – | – | –
0.55% | 0.46% | 5,889 | 4,391 | 0.42% | 0.47% | 2800 | 5,002 | cis-8,11,14,17-eicosapentaenoic | – | – | – | – | – | –
0.27% | 0.26% | 2,843 | 2,511 | 0.26% | 0.29% | 1,716 | 3,120 | CCCCCCCCCCCCCCC(=O)O [Pentadecanoic] | – | – | – | – | – | –
0.26% | 0.27% | 2,767 | 2,627 | 0.28% | 0.28% | 1,851 | 3,030 | CCCCC/C=C\C/C=C\C/C=C\CCCCC(=O)O [gamma-Linolenic] | – | – | – | – | – | –
43.60% | 42.55% | 464,051 | 409,974 | 43.54% | 42.63% | 292,485 | 456,572 | CCC=CCC=CCC=CCC=CCC=CC/C=C\CCC(=O)O [cis-4,7,10,13,16,19-Docosahexaenoic] | – | – | – | – | – | –
0.64% | 0.69% | 6,811 | 6,673 | 0.68% | 0.66% | 4597 | 7,051 | CCCCCCCCCCCCCCCCCC(=O)O [Stearic] | – | – | – | – | – | –

The remaining lines, values behind:

Compound | GC peak Area, %, After 2 hours at pH 2.5 [1, 3] | GC peak Area, %, Baseline [1, 3] | GC peak Area, After 2 hours at pH 2.5 [1, 3] | GC peak Area, Baseline [1, 3] | GC peak Area, %, After 2 hours at pH 2.5 [1, 4] | GC peak Area, %, Baseline [1, 4] | GC peak Area, After 2 hours at pH 2.5 [1, 4] | GC peak Area, Baseline [1, 4] | LDL ([2]; 0 w) | Triglycerides ([2]; 0 w) | LDL ([2]; 4 w) | Triglycerides ([2]; 4 w) | Reduction of medians of serum TG concentration ([2]; 4 weeks) | Reduction in LDL ([2]; 4 weeks, p<0.05)
CCCCC/C=C\C/C=C\CCCCCCCC(=O)O [Linoleic] | 0.98% | 1.28% | 10,395 | 12,328 | 1.25% | 0.89% | 8396 | 9,494 | – | – | – | – | – | –
CCCCCCCCCCCCCCCCCCCCCCCC(=O)O [Lignoceric] | 0.17% | 0.17% | 1,775 | 1,613 | 0.17% | 0.14% | 1162 | 1,518 | – | – | – | – | – | –
CCCC/C=C\CCCCCCCC(=O)O [Myristoleic] | 0.17% | 0.17% | 1,789 | 1,662 | 0.18% | 0.18% | 1,197 | 1,934 | – | – | – | – | – | –
CCCCC/C=C\C/C=C\C/C=C\C/C=C\CCCC(=O)O [Arachidonic] | 0.81% | 0.82% | 8,565 | 7,859 | 0.79% | 0.83% | 5323 | 8,907 | – | – | – | – | – | –
CCCCCCCCCCCC(=O)O [Lauric] | 0.15% | 0.14% | 1,605 | 1,354 | – | 0.16% | – | 1,718 | – | – | – | – | – | –
CCCCCCCCCCCCCCCC(=O)O [Palmitic] | 17.52% | 17.82% | 186,438 | 171,664 | 17.66% | 18.45% | 118,649 | 197,526 | – | – | – | – | – | –
CCCCCCCC/C=C/CCCCCCCC(=O)O [Elaidic] | 0.21% | 0.26% | 2,205 | 2,537 | 0.24% | 0.20% | 1629 | 2,108 | – | – | – | – | – | –
CCCCCC(=O)O [Caproic] | – | – | – | – | – | 1.31% | – | 13,975 | – | – | – | – | – | –
CCCCCC/C=C\CCCCCCCC(=O)O [Palmitoleic] | 0.16% | 0.17% | 1,710 | 1,598 | 0.19% | 0.11% | 1,278 | 1,219 | – | – | – | – | – | –
Linole/alpha-linilenic | 6.42% | 6.63% | 68,330 | 63,846 | 6.72% | 6.53% | 45112 | 69,917 | – | – | – | – | – | –
CC/C=C\C/C=C\C/C=C\C/C=C\C/C=C\C/C=C\CCC(=O)O [DHA, Doxosahexaenoic Acid] | – | – | – | – | – | – | – | – | 155.5 mg/dL | 191.5 mg/dL | 153.5 mg/dL | 185.5 mg/dL | 27.5 mg/dL | 19.5 mg/dL
CCCCCCCCCCCCCC(=O)O [Myristic] | 6.56% | 6.42% | 69,816 | 61,814 | 6.42% | 6.23% | 43,118 | 73,096 | – | – | – | – | – | –
CCCCCCCCCCCCCCCCCCCCCC(=O)O [Behenic] | – | – | – | – | – | 0.10% | – | 1,096 | – | – | – | – | – | –
CCCCCCCCCCCCCCCCCCCC(=O)O [Arachidic] | – | – | – | – | – | 0.10% | – | 1,032 | – | – | – | – | – | –
